One experiment deals with RAW264.7. Kind of experiment: Suppression of LPS-induced NO production in mouse RAW264.7 cells treated for 2 hrs and followed by challenged with […] for 24 hrs by griess reagent. In kind it is functional, cell-based.
In experiment [1] the test system is LLC-PK1. Kind of experiment: Renoprotective activity against cisplatin-induced cytotoxicity in pig LLC-PK1 cells assessed as recovery of cell viability treated for 2 hrs and followed by challenged with cisplatin for 24 hrs by MTT assay. The experiment is classed as functional, cell-based. Conditions: Sus scrofa.
Experiment [2] has as its system LLC-PK1. In words: Renoprotective activity against cisplatin-induced cytotoxicity in pig LLC-PK1 cells assessed as recovery of cell viability at 25 uM treated for 2 hrs and followed by challenged with cisplatin for 24 hrs by MTT assay. In kind it is functional, cell-based. To be noted: Sus scrofa.
Experiment [3] concerns LLC-PK1. In words: Renoprotective activity against cisplatin-induced cytotoxicity in pig LLC-PK1 cells assessed as recovery of cell viability at 2 to 25 uM treated for 2 hrs and followed by challenged with cisplatin for 24 hrs by MTT assay. The experiment is classed as functional, cell-based. To be noted: Sus scrofa.
The test system of experiment [4] is LLC-PK1. In words: Renoprotective activity against cisplatin-induced apoptosis in pig LLC-PK1 cells assessed as reduction in cisplatin-induced phosphorylated p38 at 25 uM treated for 2 hrs and followed by challenged with cisplatin for 24 hrs by Western blot analysis. The experiment is classed as functional, cell-based. Conditions: Sus scrofa.
Experiment [5] has as its system LLC-PK1. In words: Renoprotective activity against cisplatin-induced apoptosis in pig LLC-PK1 cells assessed as reduction in cisplatin-induced phosphorylated ERK at 25 uM treated for 2 hrs and followed by challenged with cisplatin for 24 hrs by Western blot analysis. The experiment is classed as functional, cell-based. To be noted: Sus scrofa.
Experiment [6] deals with LLC-PK1. Kind of experiment: Renoprotective activity against cisplatin-induced apoptosis in pig LLC-PK1 cells assessed as reduction in cisplatin-induced phosphorylated JNK at 25 uM treated for 2 hrs and followed by challenged with cisplatin for 24 hrs by Western blot analysis. In kind it is functional, cell-based. To be noted: Sus scrofa.
For experiment [7], the system named is LLC-PK1. In words: Renoprotective activity against cisplatin-induced apoptosis in pig LLC-PK1 cells assessed as reduction in cisplatin-induced cleaved caspase-3 at 25 uM treated for 2 hrs and followed by challenged with cisplatin for 24 hrs by Western blot analysis. The experiment is classed as functional, cell-based. Conditions: Sus scrofa.
In experiment [8] the test system is LLC-PK1. In words: Reduction in cisplatin-induced MAPK phosphorylation in pig LLC-PK1 cells at 25 uM treated for 2 hrs and followed by challenged with cisplatin for 24 hrs by Western blot analysis. In kind it is cell-based. To be noted: Sus scrofa.
For experiment [9], the system named is LLC-PK1. Kind of experiment: Renoprotective activity against cisplatin-induced apoptosis in pig LLC-PK1 cells assessed as reduction in cisplatin-induced p53 level at 25 uM treated for 2 hrs and followed by challenged with cisplatin for 24 hrs by Western blot analysis. In kind it is functional, cell-based. Conditions: Sus scrofa.
Experiment [10] relates to LLC-PK1. Kind of experiment: Renoprotective activity against cisplatin-induced apoptosis in pig LLC-PK1 cells assessed as reduction in cisplatin-induced dead and apoptotic cells at 25 uM treated for 2 hrs and followed by challenged with cisplatin for 24 hrs by annexin V/Tali image-based cytometry. In kind it is functional, cell-based. To be noted: Sus scrofa.
Experiment [11] relates to LLC-PK1. In words: Renoprotective activity against cisplatin-induced cytotoxicity in pig LLC-PK1 cells assessed as recovery of cell viability at 125 uM treated for 2 hrs and followed by challenged with cisplatin for 24 hrs by MTT assay. In kind it is functional, cell-based. To be noted: Sus scrofa.
For experiment [12], the system named is LLC-PK1. Kind of experiment: Renoprotective activity against cisplatin-induced cytotoxicity in pig LLC-PK1 cells assessed as recovery of cell viability at 25 to 125 uM treated for 2 hrs and followed by challenged with cisplatin for 24 hrs by MTT assay. Conditions: Sus scrofa. In kind it is functional, cell-based.

The results in this text go back to ChEMBL document CHEMBL3399998, “Synthesis and biological evaluation of chalcone analogues as protective agents against cisplatin-induced cytotoxicity in kidney cells” (Bioorg Med Chem Lett, 2015).

Calls of active or inactive are those of the source. The rule behind the calls is not given here.

As to `COc1cccc(C(=O)/C=C/c2cc(OC)c(OC)cc2Br)c1`, the inhibition entry in the experiment with RAW264.7 is “Dose-dependent effect”. Moreover, the Activity result in the experiment on LLC-PK1 [1] was “Dose-dependent effect”.

For the molecule `COc1cc(Br)c(/C=C/C(=O)c2ccc(Br)cc2)cc1OC`, the inhibition result with RAW264.7 is “Dose-dependent effect”. Besides, the Activity entry in the experiment on LLC-PK1 [1] was “Dose-dependent effect”. Besides, the result in the experiment on LLC-PK1 [2], with LLC-PK1 [3], in the experiment with LLC-PK1 [4], with LLC-PK1 [5], with LLC-PK1 [6] and with LLC-PK1 [7] was Active. The result in the experiment with LLC-PK1 [9] and in the experiment on LLC-PK1 [10] was Active. Besides, in the experiment with LLC-PK1 [8], the inhibition entry is “Active”.

With `Cc1ccc(/C=C/C(=O)c2ccc(Cl)cc2)cc1`, the inhibition result with RAW264.7 was “Dose-dependent effect”. Moreover, the Activity entry in the experiment with LLC-PK1 [1] is “Dose-dependent effect”. Besides, the outcome in the experiment with LLC-PK1 [11] was Active.

For `COc1ccc(C(=O)/C=C/c2cc(OC)c(Br)c(OC)c2)cc1OC`, the inhibition entry in the experiment with RAW264.7 is “Dose-dependent effect”. Moreover, in the experiment on LLC-PK1 [1], the Activity result was “Dose-dependent effect”. Moreover, the outcome with LLC-PK1 [12] was inactive.

For the molecule `COc1ccc(/C=C/C(=O)c2ccc(Br)cc2)cc1OC`, the inhibition result in the experiment on RAW264.7 was “Dose-dependent effect”. Moreover, the Activity entry in the experiment with LLC-PK1 [1] is “Dose-dependent effect”. Moreover, in the experiment on LLC-PK1 [11], the result was Active.

As to `COc1cccc(C(=O)/C=C/c2ccc(Cl)cc2)c1`, the inhibition entry in the experiment on RAW264.7 was “Dose-dependent effect”. In addition, the Activity entry with LLC-PK1 [1] is “Dose-dependent effect”. For the same molecule, the result with LLC-PK1 [4], in the experiment on LLC-PK1 [5], in the experiment with LLC-PK1 [6], in the experiment on LLC-PK1 [7], with LLC-PK1 [9] and in the experiment with LLC-PK1 [10] was Active.
